From patent US11369589B2, “Modulator of indoleamine 2,3-dioxygenase, preparation method and use thereof” (NANJING CAREPHAR SHENGHUI PHARMACEUTICAL CO., LTD., priority 2018, dated 2022)

How the values were obtained:
Format in all cases: in vitro ADME
[1] = Original drug Epacadostat plasma stability test (Embodiment 14, 6.4); details: rat plasma, 37° C.
Procedure: Liquid chromatograph: Waters 2489UV/Visible Detector, Waters 1525Binary HPLC Pump.
(§1) Mobile phase: acetonitrile (50% to 80%) and water gradient elution.
(§2) Flow rate: 1 mL/min at a column temperature of 25° C.
(§3) Detection wavelength: 254 nm at a sample size of 10 μL.
(§4) Under the condition of no mobile phase interference, the Epacadostat retention time was about 20 min.
(§5) 120 μL of the sample was precisely sucked at a specified time point each time. 120 μL of acetonitrile was added. High-speed vortex mixing was performed for 2 min. Centrifugation was performed at 10000 r/min for 15 min. Supernatant was taken and filtered by a 13 mm 0.45 μm filter membrane, and then determination could be performed.
(§6) 20 μL of DMSO solution (120 mg/mL) of Epacadostat was taken and added into 1.18 mL of fresh rat blank plasma. Incubation was performed at 37° C. 120 μL of sample was taken at different time points respectively. Sample pretreatment was performed according to the method of 6.3. Determination was performed by an HPLC method. A peak area was recorded, and a drug concentration was calculated.

[2] = Original drug Epacadostat plasma stability test (Embodiment 7.4); details: rat plasma, 37° C.
Procedure: Liquid chromatograph: Waters 2489UV/Visible Detector, Waters 1525BinaryHPLC Pump.
as §1, §2, §3, §4, §5
as §6, with “7.3.” for “6.3.”

[3] = In vitro plasma conversion experiment of target compounds (Embodiment 7.5); details: rat, 2 mg/mL (as Epacadostat equivalents)
Procedure: as §1, §2, §3
The target compounds were dissolved into a DMSO solvent. […] 20 μL of the solution was taken and added into 1.18 mL of fresh rat blank plasma, and incubation was carried out at 37° C. to obtain a sample.
as §5
Incubation was performed at 37° C. 120 μL of sample was taken at different time points respectively. Sample pretreatment was performed according to the method of 7.3. Determination was performed by an HPLC method. A peak area was recorded, and a drug concentration was calculated.
According to the method of 7.4, we performed in vitro plasma conversion experiment on the target compounds to test conversion rates of the compounds converted into the Epacadostat at different time points.

## NS(=O)(=O)NCCNc1nonc1C(=NO)Nc1ccc(F)c(Br)c1 [Epacadostat]
[1]; time 1 h
  Epacadostat concentration in plasma: 1.22 mg/mL
[1]; time 3 h
  Epacadostat concentration in plasma: 1.20 mg/mL
[1]; time 6 h
  Epacadostat concentration in plasma: 1.24 mg/mL
[1]; time 24 h
  Epacadostat concentration in plasma: 1.20 mg/mL
[1]; up to 24 h
  Stability in plasma (in words): can stably exist in the plasma
[2]; time 1 h
  Epacadostat concentration in plasma: 1.22 mg/mL
[2]; time 3 h
  Epacadostat concentration in plasma: 1.20 mg/mL
[2]; time 6 h
  Epacadostat concentration in plasma: 1.24 mg/mL
[2]; time 24 h
  Epacadostat concentration in plasma: 1.20 mg/mL
[2]; up to 24 h
  Stability in plasma (in words): can stably exist in the plasma

## CC(C)C(=O)O/N=C(\Nc1ccc(F)c(Br)c1)c1nonc1NCCNS(=O)(=O)N=Cc1cccs1 [II-1]
[3]; 0.5 h
  Conversion rate into Epacadostat: 33.7%
[3]; 1 h
  Conversion rate into Epacadostat: 56.3%
[3]; 2 h
  Conversion rate into Epacadostat: 77.2%
[3]; 3 h
  Conversion rate into Epacadostat: 87.2%
[3]; 6 h
  Conversion rate into Epacadostat: 93.8%
[3]; 12 h
  Conversion rate into Epacadostat: 100%

## CCCC(=O)O/N=C(\Nc1ccc(F)c(Br)c1)c1nonc1NCCNS(=O)(=O)N=Cc1ccc(N(C)C)cc1 [II-3]
[3]; 0.5 h
  Conversion rate into Epacadostat: 31.1%
[3]; 1 h
  Conversion rate into Epacadostat: 43.1%
[3]; 2 h
  Conversion rate into Epacadostat: 58.3%
[3]; 3 h
  Conversion rate into Epacadostat: 70.3%
[3]; 6 h
  Conversion rate into Epacadostat: 88.3%
[3]; 12 h
  Conversion rate into Epacadostat: 98.3%

## CCCCC(=O)O/N=C(\Nc1ccc(F)c(Br)c1)c1nonc1NCCNS(=O)(=O)N=Cc1ccc(Cl)s1 [II-4]
[3]; 0.5 h
  Conversion rate into Epacadostat: 47.2%
[3]; 1 h
  Conversion rate into Epacadostat: 49.0%
[3]; 2 h
  Conversion rate into Epacadostat: 51.6%
[3]; 3 h
  Conversion rate into Epacadostat: 75.2%
[3]; 6 h
  Conversion rate into Epacadostat: 89.6%
[3]; 12 h
  Conversion rate into Epacadostat: 100%
